What is called IC50 is the concentration that inhibits the measured activity by half. A low value points to inhibition by little substance.

Structures are written as SMILES. Where a name gives a salt, the structure may show the parent alone.

Experimental findings from patent publication US20220289685A1, “ANTIMALARIAL HEXAHYDROPYRIMIDINE ANALOGUES” (UCB BIOPHARMA SRL, priority 2019, published 2022) are described below.

In this experiment the test system is Plasmodium falciparum 3D7 strain. The experiment in a line: P. falciparum 3D7 asexual blood stage assay (SYBR green readout). Type of experiment: cell-based. The conditions noted are these: Plasmodium falciparum, 3D7, Erythrocyte, 72 h. In a few lines: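 P. falciparum 3D7 in A+ erythrocytes (5% haematocrit, 0.5% parasitaemia) exposed 72 h at 37 °C under 1% O2/3% CO2 to 20-point 1.5-fold titrations, 50,000–15 nM in 0.5% DMSO. SYBR green lysis overnight, fluorescence 485/528 nm; normalized to mefloquine and DMSO, EC50 from biphasic two-site fit.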
`C[C@@H]1C[C@H](N2C(=N)N[C@](C)(c3cccc(NC(=O)c4ccc(C#N)o4)c3Cl)CC2=O)CCO1` (relative stereo) [Example 115, N-(2-Chloro-3-{(4S)-2-imino-4-methyl-1-[(2R*,4R*)-2-methyl-tetrahydropyran-4-yl]-6-oxo-hexahydropyrimidin-4-yl]phenyl)-5-cyanofuran-2-carboxamide trifluoroacetic acid salt] registered an IC50 of 18 nM.
As for `C[C@@H]1C[C@H](N2C(=N)N[C@](C)(c3cccc(NC(=O)c4ccc(F)c(C#N)c4)c3Cl)CC2=O)CCO1` (relative stereo) [Example 116, N-(2-Chloro-3-{(4S)-2-imino-4-methyl-1-[(2R* ,4R* )-2-methyl-tetrahydropyran-4-yl]-6-oxo-hexahydropyrimidin-4-yl]phenyl)-3-cyano-4-fluorobenzamide trifluoroacetic acid salt], the figure is 89 nM; as for `C[C@@H]1C[C@H](N2C(=N)N[C@](C)(c3cccc(NC(=O)c4ccc(Cl)c(C#N)c4)c3Cl)CC2=O)CCO1` (relative stereo) [Example 117, 4-Chloro-N-(2-chloro-3-{(4S)-2-imino-4-methyl-1-[(2R*,4R*)-2-methyltetrahydropyran-4-yl]-6-oxo-hexahydropyrimidin-4-yl}phenyl)-3-cyanobenzamide trifluoroacetic acid salt], 17 nM.
With `C[C@@]1(c2cccc(NC(=O)c3ccccc3)c2Cl)CC(=O)N(C2CCOCC2)C(=N)N1` [Example 1, N-{2-Chloro-3-[(4S)-2-imino-4-methyl-6-oxo-1-(tetrahydropyran-4-yl)hexahydropyrimidin-4-yl]-phenyl]benzamide trifluoroacetic acid salt], the IC50 was 227 nM.
Turning to `C[C@@]1(c2cccc(NC(=O)c3ccc(Cl)cn3)c2Cl)CC(=O)N(C2CCOCC2)C(=N)N1` [Example 2, 5-Chloro-N-{2-chloro-3-[(4S)-2-imino-4-methyl-6-oxo-1-(tetrahydropyran-4-yl)hexahydro-pyrimidin-4-yl]phenyl}pyridine-2-carboxamide trifluoroacetic acid salt], inhibition was half-maximal at 1120 nM (IC50).
Take `C[C@@]1(c2cccc(NC(=O)c3cccc(C#N)c3)c2Cl)CC(=O)N(C2CCC(F)(F)CC2)C(=N)N1` [Example 23, N-{2-Chloro-3-[(4S)-1-(4,4-difluorocyclohexyl)-2-imino-4-methyl-6-oxohexahydropyrimidin-4-yl]phenyl}-3-cyanobenzamide hydrochloride]: the midpoint of inhibition, the IC50, lay at 68 nM.
